Assays:
[1] = target: rat orexin 1 receptor (Rattus norvegicus, UniProt P56718); assay: Rat orexin 1 receptor radioligand binding (competitive); settings: HEK293 cells stably expressing rat orexin 1 receptor; 4 nM radioligand; averages of 2-20 runs; read-out: rOX1 Ki
How it was run: (§1)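 Competition binding used HEK293 cells expressing rat OX1 or CHO cells expressing human OX1, with 4 nM final [3H]-labelled thiazolyl-oxadiazolyl-pyrrolidinyl methanone radioligand in PBS. Compounds were tested at 7 concentrations (0.1 nM–10 μM) for 60 min at room temperature, then filtered; 10 μM almorexant defined nonspecific binding. Ki was derived from the one-site IC50 and the radioligand Kd.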

[2] = target: human orexin 1 receptor (Homo sapiens (Human), UniProt O43613); assay: Human orexin 1 receptor radioligand binding (competitive); settings: CHO cells stably expressing human orexin 1 receptor; 4 nM radioligand; averages of 2-20 runs; read-out: hOX1 Ki
How it was run: as §1

[3] = target: human orexin 2 receptor (Homo sapiens (Human), UniProt O43614); assay: Human orexin 2 receptor radioligand binding ([3H]-EMPA competition); settings: HEK293 stably expressing human orexin 2 receptor; 2 nM [3H]-EMPA; averages of 2-20 runs; read-out: hOX2 Ki
How it was run: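 Membranes-free whole HEK293 cells stably expressing human OX2 receptor incubated with [3H]-EMPA and compound (7 concentrations, 0.1 nM–10 μM, ≤0.1% DMSO) for 60 min at room temperature; nonspecific binding with 10 μM almorexant. Filtration and scintillation counting; one-site IC50 converted to Ki using predetermined Kd, triplicates averaged over 2-20 runs.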

human orexin 1 receptor, sequence (O43613 whole entry): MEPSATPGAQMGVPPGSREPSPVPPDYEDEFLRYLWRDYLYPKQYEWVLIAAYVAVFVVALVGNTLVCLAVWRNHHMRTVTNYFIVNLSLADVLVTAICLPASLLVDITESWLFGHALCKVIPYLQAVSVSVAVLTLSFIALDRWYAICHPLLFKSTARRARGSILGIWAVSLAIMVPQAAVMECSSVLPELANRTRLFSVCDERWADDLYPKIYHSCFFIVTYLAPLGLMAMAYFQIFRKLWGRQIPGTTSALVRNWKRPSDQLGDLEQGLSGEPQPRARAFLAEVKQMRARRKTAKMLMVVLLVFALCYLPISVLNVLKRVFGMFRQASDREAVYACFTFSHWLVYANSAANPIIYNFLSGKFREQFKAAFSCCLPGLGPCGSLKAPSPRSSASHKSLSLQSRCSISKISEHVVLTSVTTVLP
human orexin 2 receptor, sequence (O43614 whole entry): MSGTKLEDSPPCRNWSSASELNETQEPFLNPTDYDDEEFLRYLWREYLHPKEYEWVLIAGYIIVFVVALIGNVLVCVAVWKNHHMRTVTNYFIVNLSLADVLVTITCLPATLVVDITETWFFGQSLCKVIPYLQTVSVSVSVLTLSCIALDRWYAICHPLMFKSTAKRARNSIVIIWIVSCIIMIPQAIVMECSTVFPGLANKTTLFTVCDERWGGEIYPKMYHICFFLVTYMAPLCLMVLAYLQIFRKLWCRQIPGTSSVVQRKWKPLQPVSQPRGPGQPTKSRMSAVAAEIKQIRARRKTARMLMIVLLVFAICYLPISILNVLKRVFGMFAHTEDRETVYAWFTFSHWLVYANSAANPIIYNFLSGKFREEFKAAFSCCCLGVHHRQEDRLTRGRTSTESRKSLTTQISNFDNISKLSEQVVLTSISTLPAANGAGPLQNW

| SMILES | Ki [1] [nM] | Ki [2] [nM] | Ki [3] [nM] |
| --- | --- | --- | --- |
| COc1ccc(C(=O)N2[C@H](C)[C@H]3C[C@@H](Oc4cnc(C(F)(F)F)cn4)[C@@H]2C3)c(-n2nccn2)c1 (relative stereo) [Example 57, (4-methoxy-2-(2H-1,2,3-triazol-2-yl)phenyl)((1S*,3R*,4R*,6R*)-3-methyl-6-((5-(trifluoromethyl)pyrazin-2-yl)oxy)-2-azabicyclo[2.2.1]heptan-2-yl)methanone] | 15 | 10 | > 10000 |
| Cc1cnc(C(=O)N2C(C)C3CC(Nc4ccc(C(F)(F)F)cn4)C2C3)c(-c2ncccn2)c1 (racemic) [Example 59, (R/S)-(5-methyl-3-(pyrimidin-2-yl)pyridin-2-yl)(3-methyl-6-((5-(trifluoromethyl)pyridin-2-yl)amino)-2-azabicyclo[2.2.1]heptan-2-yl)methanone] | 20 | 53 | 4100 |
| [2H]C1([2H])[C@H]2C[C@@H]([C@@H]1Oc1ccc(Cl)cn1)N(C(=O)c1cccc(F)c1-n1nccn1)[C@@H]2C [Example 197, [(1R,3R,4S,6R)-3-[(5-chloro-2-pyridyl)oxy]-2,2-dideuterio-6-methyl-5-azabicyclo[2.2.1]heptan-5-yl]-[3-fluoro-2-(triazol-2-yl)phenyl]methanone] | 4 | 3 | 481 |
| Cc1cnc(C(=O)N2[C@H](C)[C@@H]3CC[C@H]2[C@H](Oc2ccc(C(F)(F)F)cn2)C3)c(-c2ncccn2)c1 [Example 161, (5-methyl-3-pyrimidin-2-yl-2-pyridyl)-[(1R,2R,4S,5R)-2-methyl-5-[[5-(trifluoromethyl)-2-pyridyl]oxy]-3-azabicyclo[2.2.2]octan-3-yl]methanone] | 4 | 8 | 5000 |
| C[C@@H]1[C@@H]2CC[C@@H]([C@@H](Oc3ccc(C(F)(F)F)cn3)C2)N1C(=O)c1cccc(F)c1-c1ncccn1 [Example 162, (3-fluoro-2-pyrimidin-2-yl-phenyl)-[(1R,2R,4S,5S)-2-methyl-5-[[5-(trifluoromethyl)-2-pyridyl]oxy]-3-azabicyclo[2.2.2]octan-3-yl]methanone] | 236 | 106 | > 10000 |
| C[C@@H]1[C@H]2C[C@@H](Oc3cnc(C(F)(F)F)cn3)[C@H](C2)N1C(=O)c1cccc(F)c1-n1nccn1 (relative stereo) [Example 52, (3-fluoro-2-(2H-1,2,3-triazol-2-yl)phenyl)((1S*,3R*,4R*,6R*)-3-methyl-6-((5-(trifluoromethyl)pyrazin-2-yl)oxy)-2-azabicyclo[2.2.1]heptan-2-yl)methanone] | 18 | 14 | 2550 |
| Cc1ccc(-c2ncccn2)c(C(=O)N2[C@H](C)[C@@H]3CC[C@H]2[C@H](Oc2ccc(C(F)(F)F)cn2)C3)n1 [Example 158, (6-methyl-3-pyrimidin-2-yl-2-pyridyl)-[(1R,2R,4S,5R)-2-methyl-5-[[5-(trifluoromethyl)-2-pyridyl]oxy]-3-azabicyclo[2.2.2]octan-3-yl]methanone] | 35 | 138 | 2700 |
| C[C@@H]1[C@H]2C[C@@H](Oc3ccc(C(F)(F)F)cn3)[C@H](C2)N1C(=O)c1ccccc1-c1cccc([N+](=O)[O-])n1 [Example 174, [(1R,2R,4S,5R)-2-methyl-5-[[5-(trifluoromethyl)-2-pyridyl]oxy]-3-azabicyclo[2.2.1]heptan-3-yl]-[2-(6-nitro-2-pyridyl)phenyl]methanone] | 8 | 9 | 3940 |
| Cc1ccc(-n2nccn2)c(C(=O)N2[C@H](C)[C@H]3C[C@@H](Oc4ccc(C(F)F)cn4)[C@@H]2C3)n1 [Example 110, [(1R,2R,4S,5R)-5-[[5-(difluoromethyl)-2-pyridyl]oxy]-2-methyl-3-azabicyclo[2.2.1]heptan-3-yl]-[6-methyl-3-(triazol-2-yl)-2-pyridyl]methanone] | 7 | 5 | 146 |
| Cc1cnc(C(=O)N2[C@H](C)[C@H]3C[C@@H](Oc4ccc(C(F)(F)F)cn4)[C@@H]2C3)c(-c2ncccc2F)c1 (relative stereo) [Example 34, (3-fluoro-5′-methyl-[2,3′-bipyridin]-2′-yl)((1S*,3R*,4R*,6R*)-3-methyl-6-((5-(trifluoromethyl)pyridin-2-yl)oxy)-2-azabicyclo[2.2.1]heptan-2-yl)methanone] | 11 | 14 | 6300 |
| C[C@@H]1[C@H]2C[C@@H](Oc3ccc(C(F)(F)F)cn3)[C@H](C2)N1C(=O)c1cc(F)ccc1-n1nccn1 (relative stereo) [Example 29, (5-fluoro-2-(2H-1,2,3-triazol-2-yl)phenyl)((1S*,3R*,4R*,6R*)-3-methyl-6-((5-(trifluoromethyl)pyridin-2-yl)oxy)-2-azabicyclo[2.2.1]heptan-2-yl)methanone] | 5 | 14 | 836 |
| C[C@@H]1[C@H]2C[C@@H](Oc3cnc(C(F)(F)F)cn3)[C@H](C2)N1C(=O)c1cc(F)ccc1-n1nccn1 (relative stereo) [Example 54, (5-fluoro-2-(2H-1,2,3-triazol-2-yl)phenyl)((1S*,3R*,4R*,6R*)-3-methyl-6-((5-(trifluoromethyl)pyrazin-2-yl)oxy)-2-azabicyclo[2.2.1]heptan-2-yl)methanone] | 26 | 18 | 3400 |
| Cc1ccc(C(=O)N2[C@H](C)[C@H]3C[C@@H](Oc4ccc(Cl)cn4)[C@@H]2C3)c(-n2nccn2)n1 [Example 193, [(1R,2R,4S,5R)-5-[(5-chloro-2-pyridyl)oxy]-2-methyl-3-azabicyclo[2.2.1]heptan-3-yl]-[6-methyl-2-(triazol-2-yl)-3-pyridyl]methanone] | 8 | 8 | 4700 |
| C[C@@H]1[C@@H]2CC[C@@H]([C@H](Oc3ccc(C(F)(F)F)cn3)C2)N1C(=O)c1ccccc1-n1nccn1 [Example 157, [(1R,2R,4S,5R)-2-methyl-5-[[5-(trifluoromethyl)-2-pyridyl]oxy]-3-azabicyclo[2.2.2]octan-3-yl]-[2-(triazol-2-yl)phenyl]methanone] | 29 | 129 | 6000 |
| C[C@@H]1[C@H]2C[C@@H](Oc3ccc(C(F)(F)F)cn3)[C@H](C2)N1C(=O)c1ccccc1-c1ccnc(F)c1 [Example 172, [2-(2-fluoro-4-pyridyl)phenyl]-[(1R,2R,4S,5R)-2-methyl-5-[[5-(trifluoromethyl)-2-pyridyl]oxy]-3-azabicyclo[2.2.1]heptan-3-yl]methanone] | 66 | 67 | > 10000 |
| O=C(c1ccccc1-c1ncccn1)N1[C@H](CF)[C@@H]2CC[C@H]1[C@H](Oc1ccc(C(F)(F)F)cn1)C2 [Example 75, ((1S,3S,4R,6R)-3-(fluoromethyl)-6-((5-(trifluoromethyl)pyridin-2-yl)oxy)-2-azabicyclo[2.2.2]octan-2-yl)(2-(pyrimidin-2-yl)phenyl)methanone] | 92 | 66 | > 10000 |
| Cc1ccc(-n2nccn2)c(C(=O)N2[C@H](C)[C@H]3C[C@@H](Oc4cnc5cc(F)ccc5n4)[C@@H]2C3)n1 (relative stereo) [Example 186, ((1S*,3R*,4R*,6R*)-6-((6-fluoroquinoxalin-2-yl)oxy)-3-methyl-2-azabicyclo[2.2.1]heptan-2-yl)(6-methyl-3-(2H-1,2,3-triazol-2-yl)pyridin-2-yl)methanone] | 18 | 12 | 125 |

— US9611262B2, “Substituted 2-azabicycles and their use as orexin receptor modulators” (JANSSEN PHARMACEUTICA NV, priority 2014, dated 2017)
